Publication PMC6832239, “The Effects of a Novel Series of KTTKS Analogues on Cytotoxicity and Proteolytic Activity” (Molecules, 2019)
Read-outs that look alike come from different tables or passages of the source. Residues, ends and D or L forms follow the SMILES beside them.

Assays:
plasmin = biological target: T1, plasmin (Homo sapiens, UniProt P00747); assay: Amidolytic activity of plasmin (chromogenic substrate H-D-Val-Leu-Lys-pNA); format: biochemical
T1 construct: purchased Chromogenix (Milano, Italy)
T1 sequence (P00747 581-810 limits assumed): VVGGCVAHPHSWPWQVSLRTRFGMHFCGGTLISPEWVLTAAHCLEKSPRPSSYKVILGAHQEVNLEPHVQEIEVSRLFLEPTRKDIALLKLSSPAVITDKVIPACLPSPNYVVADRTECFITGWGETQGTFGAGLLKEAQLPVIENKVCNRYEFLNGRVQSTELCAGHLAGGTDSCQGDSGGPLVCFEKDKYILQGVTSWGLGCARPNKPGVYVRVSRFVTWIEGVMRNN
T1 sequence (P00747 97-580 partner limits assumed): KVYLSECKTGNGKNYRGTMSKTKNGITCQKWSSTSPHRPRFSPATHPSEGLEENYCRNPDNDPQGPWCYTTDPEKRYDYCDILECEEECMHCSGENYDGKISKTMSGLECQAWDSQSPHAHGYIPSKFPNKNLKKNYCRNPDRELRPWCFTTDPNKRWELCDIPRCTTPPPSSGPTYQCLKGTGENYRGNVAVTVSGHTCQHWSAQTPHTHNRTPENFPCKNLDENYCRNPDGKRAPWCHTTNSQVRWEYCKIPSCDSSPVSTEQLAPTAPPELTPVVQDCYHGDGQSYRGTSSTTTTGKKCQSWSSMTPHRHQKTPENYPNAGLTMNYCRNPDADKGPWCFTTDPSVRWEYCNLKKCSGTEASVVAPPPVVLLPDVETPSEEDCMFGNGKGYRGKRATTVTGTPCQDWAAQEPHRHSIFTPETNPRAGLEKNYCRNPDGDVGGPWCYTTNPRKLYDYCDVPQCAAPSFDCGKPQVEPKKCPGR
Experimental: (§1) The determination of amidolytic activity was performed as previously described by Okada. A detailed description of the method is given below: 0.2 mL of the examined peptides (0.15 M NaCl as contro), a buffer, and 0.1 mL of enzyme solution were mixed. The final peptide concentrations were: 0.2 mM, 2 mM, and 20 mM. The mixture was incubated at 37 °C for 3 min; then the synthetic substrate solution was added in the same buffer. After 20 min of incubation, the reaction was stopped by adding 0.1 mL of 50% acetic acid and the absorbance of the released p-nitroaniline was measured at 405 nm. The mean values from three independent experiments done in duplicate are presented. A method error of 5% was adopted as statistical error. IC50 value was considered as the concentration of inhibitor that reduces absorbance by 50%, compared with absorbance measured under the same conditions without an inhibitor. IC50 was calculated mathematically by extrapolation using a linear plot. IC50 values are presented in Table 1 and Table 2, and graphically in Figure 1.
(§2) The buffers and the enzyme solutions included: • Tris buffer—0.6 mL (pH 8.8), enzyme: urokinase (50 units/mL), synthetic substrate: pyro-Glu-Gly-Arg-pNA·HCl (0.1 mL, 3 mM); • Tris buffer—0.5 mL (pH 8.4), enzyme: thrombin (1 units/mL), synthetic substrate: H-D-Phe-Pip-Arg-pNA (0.2 mL, 0.75 mM); • Tris buffer—0.5 mL (pH 7.4), enzyme: plasmin (0.4 units/mL), synthetic substrate: H-D-Val-Leu-Lys-pNA (0.2 mL, 3 mM); • Borate buffer—0.5 mL (pH 7.5), enzyme: trypsin (0.4 units/mL), synthetic substrate: Bzl-L-Arg-pNA·HCl (0.2 mL, 8 mM); • Tris buffer—0.6 mL (pH 9.0), enzyme: kallikrein (3 units/mL), synthetic substrate: H-D-Val-Leu-Arg-pNA·2HCl (0.1 mL, 75 mM); • Tris buffer—0.6 mL (pH 8.4), enzyme: t-PA ([…]), synthetic substrate: H-D-Ile-Pro-Arg-pNA (0.1 mL, 10 mM) • Tris buffer—0.6 mL (pH 9.0), enzyme: chymotrypsin (0.4 units/mL), synthetic substrate: Suc-Phe-pNA (0.2 mL, 8 mM)

[1] = Viability of fibroblast cells, MTT assay; format: cell-based, Human; conditions: human, primary dermal fibroblast cells
Experimental: Viability of fibroblast cells was examined with the use of the MTT assay. MTT, a yellow tetrazole, is reduced to purple formazan only in living cells. Absorbance of the coloured solution was measured by a spectrophotometer.
These studies were performed on primary dermal fibroblasts cells. The cells were maintained in DMEM supplemented with 10% fetal bovine serum (FBS), 2 mM glutamin, 50 U/mL penicillin and […] streptomycin at 37 °C in a 5% CO2 incubator. For experiments, cells cultures were plated at a density of 1 × 10^6/well in six-well culture plates (Costar, St. Louis, MO, USA) in 2 mL of growth medium. Cells reached about 80% of confluency at day 2 were used for the assays.
Toxicity of the tested substances was determined using an MTT [3-(4,5-dimethylthiazol-2-yl)-2,5-diphenyltetrazolium bromide)] assay. Palmitoyl and lipoyl peptides were dissolved in DMSO (dimethyl sulfoxide), the other peptides in DMEM, and added to the cell culture medium. Simultaneously, the same concentrations of DMSO without peptides were added to cells, serving as controls. The final peptide concentrations were: 1 μM, 10 μM, and 100 μM. After 24 h incubation, the cells cultured with the tested compounds were washed with phosphate-buffered saline (PBS) and then incubated for 4 h in 2 mL of MTT solution (5 mg/mL). After removing the medium, the cells were lysed in 200 μL of DMSO with 20 μL of Sorensen’s buffer (pH 10.5, 0.1 mol/L glycine with 0.1 mol/L NaCl). The absorbance of converted dye in living cells was measured at a wavelength of 570 nm. The mean values ± SD from three independent experiments done in duplicate are presented.

urokinase = biological target: T2, urokinase (Homo sapiens, UniProt P00749); assay: Amidolytic activity of urokinase (chromogenic substrate pyro-Glu-Gly-Arg-pNA); format: biochemical
T2 construct: purchased Sigma (Schnelldorf, Germany)
Experimental: as §1, §2

thrombin = biological target: T3, thrombin (Bos taurus, UniProt P00735); assay: Amidolytic activity of thrombin (chromogenic substrate H-D-Phe-Pip-Arg-pNA); format: biochemical
T3 construct: purchased Lubelska Wytwórnia Szczepionek (Lublin, Poland)
Experimental: The determination of amidolytic activity was performed as previously described by Okada. A detailed description of the method is given below: 0.2 mL of the examined peptides (0.15 M NaCl as contro), a buffer, and 0.1 mL of enzyme solution were mixed. The final peptide concentrations were: 0.2 mM, 2 mM, and 20 mM. The mixture was incubated at 37 °C for 3 min; then the synthetic substrate solution was added in the same buffer. […] The mean values from three independent experiments done in duplicate are presented. A method error of 5% was adopted as statistical error. […] IC50 was calculated mathematically by extrapolation using a linear plot.

[2] = amidolytic activity, Tris pH 7.4, 37 °C, IC50 by extrapolation using a linear plot, error 5%, read-out: IC50 Plasmin
[3] = 1 µmol/L, 24 h, MTT, ± 2, read-out: Viability of fibroblast cells
[4] = 10 µmol/L, 24 h, MTT, ± 2, read-out: Viability of fibroblast cells
[5] = 100 µmol/L, 24 h, MTT, ± 2, read-out: Viability of fibroblast cells
[6] = amidolytic activity, Tris pH 8.8, 37 °C, IC50 by extrapolation using a linear plot, error 5%, read-out: IC50 Urokinase
[7] = amidolytic activity, Tris pH 8.4, 37 °C, IC50 by extrapolation using a linear plot, error 5%, read-out: IC50 Thrombin
[8] = converted from IC50 of Table 1, read-out: -logIC50 Plasmin (converted)

Compound | IC50 (plasmin; [2]) [mM] | viability at 24 h, 1 µmol/L [1, 3] [%] | viability at 24 h, 10 µmol/L [1, 4] [%] | viability at 24 h, 100 µmol/L [1, 5] [%] | IC50 (urokinase; [6]) [mM] | IC50 (thrombin; [7]) [mM] | level of inhibition of plasmin activity (plasmin) | level of inhibition of urokinase activity (urokinase) | level of inhibition of thrombin activity (thrombin) | IC50 (plasmin; [8]) [mM] | IC50 (urokinase; converted from IC50 of Table 1, read-out: -logIC50 Urokinase (converted)) [mM] | viability at 24 h, 1 µmol/L [1] [%] | viability at 24 h, 10 µmol/L [1] [%] | viability at 24 h, 100 µmol/L [1] [%] | IC50 (thrombin) [mM]
Ac-RTTRS-NH2 [Peptide 22, Ac-Arg-Thr-Thr-Arg-Ser-NH2] | 9.08 ± 0.45 | 102 | 99 | 101 | > 20 | 1.47 ± 0.074 |  |  |  |  |  |  |  |  | 
H-KTTKS-NH2 [Peptide 5, H-Lys-Thr-Thr-Lys-Ser-NH2] | 0.53 ± 0.026 | 91 | 91 | 100 | 9.15 ± 0.46 | 7.04 ± 0.35 |  |  |  |  |  |  |  |  | 
CCCCCCCCCCCCCCCC(=O)N[C@@H](CCCNC(=N)N)C(=O)N[C@H](C(=O)N[C@H](C(=O)N[C@@H](CCCCN)C(=O)N[C@@H](CO)C(=O)O)[C@@H](C)O)[C@@H](C)O [Peptide 28, Pal-Arg-Thr-Thr-Lys-Ser-OH] (HELM PEPTIDE1{[CCCCCCCCCCCCCCCC(=O)[*:2]].R.T.T.K.S}$$$$V2.0) |  | 104 | 103 | 106 |  |  | above 90% | above 90% | above 90% |  |  |  |  |  | 
Ac-RTTRS-OH [Peptide 18, Ac-Arg-Thr-Thr-Arg-Ser-OH] | 8.81 ± 0.44 | 88 | 103 | 107 | 3.24 ± 0.16 | 3.12 ± 0.16 |  |  |  | 8.91 |  |  |  |  | 
H-RTTKS-NH2 [Peptide 29, H-Arg-Thr-Thr-Lys-Ser-NH2] | 0.3 ± 0.015 | 101 | 111 | 110 | 7.95 ± 0.4 | 2.43 ± 0.12 |  |  |  | 0.309 |  |  |  |  | 
Ac-KTTKS-OH [Peptide 2, Ac-Lys-Thr-Thr-Lys-Ser-OH] | 2.78 ± 0.14 | 98 | 88 | 82 | 3.88 ± 0.19 | 2.2 ± 0.11 |  |  |  |  |  |  |  |  | 
H-RTTRS-NH2 [Peptide 21, H-Arg-Thr-Thr-Arg-Ser-NH2] | 0.44 ± 0.022 | 84 | 94 | 103 | 12 ± 0.59 | 2.93 ± 0.14 |  |  |  |  |  |  |  |  | 
C[C@@H](O)[C@H](NC(=O)[C@H](CCCCN)NC(=O)CCCCC1CCSS1)C(=O)N[C@H](C(=O)N[C@@H](CCCCN)C(=O)N[C@@H](CO)C(N)=O)[C@@H](C)O (mixture of isomers) [Peptide 7, Lip-Lys-Thr-Thr-Lys-Ser-NH2] | 0.58 ± 0.029 | 97 | 89 | 87 | 15.1 ± 0.75 | 11.7 ± 0.58 |  |  |  |  |  |  |  |  | 
H-RTTKS-OH [Peptide 25, H-Arg-Thr-Thr-Lys-Ser-OH] | 0.54 ± 0.027 | 97 | 87 | 109 | < 0.2 | 2.51 ± 0.13 |  |  |  |  |  |  |  |  | 
Ac-RTTKS-NH2 [Peptide 30, Ac-Arg-Thr-Thr-Lys-Ser- NH2] | 5 ± 0.25 | 95 | 105 | 101 | 12.1 ± 0.6 | 1.59 ± 0.08 |  |  |  |  |  |  |  |  | 
Ac-KTTRS-OH [Peptide 10, Ac-Lys-Thr-Thr-Arg-Ser-OH] | 2.24 ± 0.11 | 104 | 100 | 94 |  | 2.89 ± 0.14 |  |  |  |  | 4.79 |  |  |  | 
CCCCCCCCCCCCCCCC(=O)N[C@@H](CCCNC(=N)N)C(=O)N[C@H](C(=O)N[C@H](C(=O)N[C@@H](CCCNC(=N)N)C(=O)N[C@@H](CO)C(=O)O)[C@@H](C)O)[C@@H](C)O [Peptide 20, Pal-Arg-Thr-Thr-Arg-Ser-OH] (HELM PEPTIDE1{[CCCCCCCCCCCCCCCC(=O)[*:2]].R.T.T.R.S}$$$$V2.0) |  | 90 | 90 | 103 |  | < 0.2 | above 90% | above 90% | above 90% |  |  |  |  |  | 
C[C@@H](O)[C@H](NC(=O)[C@H](CCCCN)NC(=O)CCCCC1CCSS1)C(=O)N[C@H](C(=O)N[C@@H](CCCNC(=N)N)C(=O)N[C@@H](CO)C(N)=O)[C@@H](C)O (mixture of isomers) [Peptide 15, Lip-Lys-Thr-Thr-Arg-Ser-NH2] | 0.69 ± 0.035 |  |  |  | 3.47 ± 0.17 |  |  |  |  |  |  | 112 | 122 | 115 | 4.11 ± 0.21
